# Key:
# Type in all cases: in vivo
# Kochia (Kochia scoparia) [1] = experiment: Test A preemergence; conditions: Bassia scoparia, pre-emergence, 240 h, preemergence, 0 to 100 scale where 0 is no effect and 100 is complete control, read-out: Kochia plant response rating; for pest or weed control at 125 g/ha: 125 g ai/ha, visual injury rating, approximately 10 d; for pest or weed control at 500 g/ha: 500 g ai/ha
# How it was run: (§1)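 Compounds were formulated in a non-phytotoxic solvent mixture with surfactant and applied as a preemergence directed soil spray after seeding, or sprayed postemergence over plants 2 to 10 cm tall at the one- to two-leaf stage. Evaluation after about 10 d compared treated with untreated controls, using a scale from 0 (no effect) to 100 (complete control).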
# [2] = system: barnyardgrass (Echinochloa crus-galli); experiment: Test A preemergence; conditions: Echinochloa crus-galli, pre-emergence, 240 h, preemergence, 0 to 100 scale where 0 is no effect and 100 is complete control, read-out: Barnyardgrass plant response rating; for pest or weed control at 125 g/ha: 125 g ai/ha, visual injury rating, approximately 10 d; for pest or weed control at 500 g/ha: 500 g ai/ha
# How it was run: as §1
# [3] = system: giant foxtail (Setaria faberii); experiment: Test A preemergence; conditions: Setaria faberi, pre-emergence, 240 h, preemergence, 0 to 100 scale where 0 is no effect and 100 is complete control, read-out: Foxtail, Giant plant response rating; for pest or weed control at 125 g/ha: 125 g ai/ha, visual injury rating, approximately 10 d; for pest or weed control at 500 g/ha: 500 g ai/ha
# How it was run: as §1
# [4] = system: pigweed (Amaranthus retroflexus); experiment: Test A preemergence; conditions: Amaranthus retroflexus, pre-emergence, 240 h, preemergence, 0 to 100 scale where 0 is no effect and 100 is complete control, read-out: Pigweed plant response rating; for pest or weed control at 125 g/ha: 125 g ai/ha, visual injury rating, approximately 10 d; for pest or weed control at 500 g/ha: 500 g ai/ha
# [5] = system: ragweed (common ragweed, Ambrosia elatior); experiment: Test A preemergence; conditions: Ambrosia artemisiifolia, pre-emergence, 240 h, preemergence, 0 to 100 scale where 0 is no effect and 100 is complete control, read-out: Ragweed plant response rating; for pest or weed control at 125 g/ha: 125 g ai/ha, visual injury rating, approximately 10 d; for pest or weed control at 500 g/ha: 500 g ai/ha
# How it was run: as §1
# [6] = system: ryegrass, Italian (Italian ryegrass, Lolium multiflorum); experiment: Test A preemergence; conditions: Lolium multiflorum, pre-emergence, 240 h, preemergence, 0 to 100 scale where 0 is no effect and 100 is complete control, read-out: Ryegrass, Italian plant response rating; for pest or weed control at 125 g/ha: 125 g ai/ha, visual injury rating, approximately 10 d; for pest or weed control at 500 g/ha: 500 g ai/ha
# How it was run: as §1
# Kochia (Kochia scoparia) [7] = experiment: Test A postemergence; conditions: Bassia scoparia, post-emergence, 240 h, Postemergence; for pest or weed control at 125 g/ha: 125 g ai/ha, visual rating about 10 d after treatment, read-out: Kochia plant response rating (0 to 100 scale); for pest or weed control at 500 g/ha: 500 g ai/ha, visual injury, 0 to 100 scale (0 no effect, 100 complete control), approx. 10 d, read-out: Plant response rating, Kochia
# How it was run: as §1
# [8] = system: blackgrass (Alopecurus myosuroides); experiment: Test A postemergence; conditions: Alopecurus myosuroides, post-emergence, 240 h, Postemergence; for pest or weed control at 125 g/ha: 125 g ai/ha, visual rating about 10 d after treatment, read-out: Blackgrass plant response rating (0 to 100 scale); for pest or weed control at 500 g/ha: 500 g ai/ha, visual injury, 0 to 100 scale (0 no effect, 100 complete control), approx. 10 d, read-out: Plant response rating, Blackgrass
# How it was run: as §1
# [9] = system: ragweed (common ragweed, Ambrosia elatior); experiment: Test A postemergence; conditions: Ambrosia artemisiifolia, post-emergence, 240 h, Postemergence; for pest or weed control at 125 g/ha: 125 g ai/ha, visual rating about 10 d after treatment, read-out: Ragweed plant response rating (0 to 100 scale); for pest or weed control at 500 g/ha: 500 g ai/ha, visual injury, 0 to 100 scale (0 no effect, 100 complete control), approx. 10 d, read-out: Plant response rating, Ragweed
# How it was run: as §1
# [10] = system: ryegrass, Italian (Italian ryegrass, Lolium multiflorum); experiment: Test A postemergence; conditions: Lolium multiflorum, post-emergence, 240 h, Postemergence; for pest or weed control at 125 g/ha: 125 g ai/ha, visual rating about 10 d after treatment, read-out: Ryegrass, Italian plant response rating (0 to 100 scale); for pest or weed control at 500 g/ha: 500 g ai/ha, visual injury, 0 to 100 scale (0 no effect, 100 complete control), approx. 10 d, read-out: Plant response rating, Ryegrass, Italian
# How it was run: as §1
# [11] = system: wheat (Triticum aestivum); experiment: Test A postemergence; conditions: Triticum aestivum, post-emergence, 240 h, Postemergence; for plant injury at 125 g/ha: 125 g ai/ha, visual rating about 10 d after treatment, read-out: Wheat plant response rating (0 to 100 scale); for plant injury at 500 g/ha: 500 g ai/ha, visual injury, 0 to 100 scale (0 no effect, 100 complete control), approx. 10 d, read-out: Plant response rating, Wheat
# How it was run: as §1
# [12] = system: barnyardgrass (Echinochloa crus-galli); experiment: Test B flooded paddy test; conditions: Echinochloa crus-galli, 250 g ai/ha, Flood; 0 to 100 scale where 0 is no effect and 100 is complete control; read-out: Barnyardgrass plant response rating
# How it was run: (§2)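 Flooding to 3 cm over soil accompanied treatment, which consisted of adding compound to the standing water around 2-leaf plants; depth was then maintained. Visual assessment versus controls followed at 13 to 15 d (scale 0–100, 0 meaning no effect).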
# [13] = system: ducksalad (Heteranthera limosa); experiment: Test B flooded paddy test; conditions: Heteranthera limosa, 250 g ai/ha, Flood; 0 to 100 scale where 0 is no effect and 100 is complete control; read-out: Ducksalad plant response rating
# How it was run: as §2
# rice (Oryra sativa) = experiment: Test B flooded paddy test; conditions: Oryza sativa, 250 g ai/ha, Flood; 0 to 100 scale where 0 is no effect and 100 is complete control; read-out: Rice plant response rating
# How it was run: as §2
# [14] = system: sedge, umbrella (small-flower umbrella sedge, Cyperus difformis); experiment: Test B flooded paddy test; conditions: Cyperus difformis, 250 g ai/ha, Flood; 0 to 100 scale where 0 is no effect and 100 is complete control; read-out: Sedge, Umbrella plant response rating
# How it was run: as §2
Structure (SMILES),pest or weed control at 125 g/ha (Kochia (Kochia scoparia) [1]),pest or weed control at 500 g/ha (Kochia (Kochia scoparia) [1]),pest or weed control at 125 g/ha [2],pest or weed control at 500 g/ha [2],pest or weed control at 125 g/ha [3],pest or weed control at 500 g/ha [3],pest or weed control at 125 g/ha [4],pest or weed control at 500 g/ha [4],pest or weed control at 500 g/ha [5],pest or weed control at 125 g/ha [6],pest or weed control at 500 g/ha [6],pest or weed control at 125 g/ha (Kochia (Kochia scoparia) [7]),pest or weed control at 500 g/ha (Kochia (Kochia scoparia) [7]),pest or weed control at 125 g/ha [8],pest or weed control at 500 g/ha [8],pest or weed control at 125 g/ha [9],pest or weed control at 500 g/ha [9],pest or weed control at 125 g/ha [10],pest or weed control at 500 g/ha [10],plant injury at 125 g/ha [11],also measured
O=C1NC[C@H](c2nccc(C(F)(F)F)n2)[C@H]1C(=O)Nc1ccccc1F [Compound 1304],0%,0%,0%,0%,0%,0%,0%,0%,0%,0%,0%,0%,0%,0%,0%,0%,0%,0%,0%,0%,pest or weed control at 125 g/ha [5]: 0%; plant injury at 500 g/ha [11]: 0%; pest or weed control at 250 g/ha [12]: 0%; pest or weed control at 250 g/ha [13]: 0%; pest or weed control at 250 g/ha (rice (Oryra sativa)): 0%; pest or weed control at 250 g/ha [14]: 0%
CSc1ccccc1NC(=O)[C@H]1C(=O)NC[C@@H]1c1cc(C)cc(F)c1 [Compound 1306],0%,70%,60%,90%,30%,90%,0%,0%,60%,0%,0%,0%,60%,0%,0%,0%,0%,0%,0%,0%,pest or weed control at 125 g/ha [5]: 40%; plant injury at 500 g/ha [11]: 0%; pest or weed control at 250 g/ha [12]: 20%; pest or weed control at 250 g/ha [13]: 100%; pest or weed control at 250 g/ha (rice (Oryra sativa)): 0%; pest or weed control at 250 g/ha [14]: 0%
Cc1cc(F)cc([C@H]2CNC(=O)[C@@H]2C(=O)Nc2ccccc2S(C)(=O)=O)c1 [Compound 1307],20%,90%,80%,90%,50%,90%,0%,0%,60%,0%,0%,0%,40%,0%,0%,0%,0%,0%,0%,0%,plant injury at 500 g/ha [11]: 0%; pest or weed control at 250 g/ha [12]: 30%; pest or weed control at 250 g/ha [13]: 100%; pest or weed control at 250 g/ha (rice (Oryra sativa)): 20%; pest or weed control at 250 g/ha [14]: 0%
Cc1cc(F)cc([C@H]2CNC(=O)[C@@H]2C(=O)Nc2cccc(F)c2C)c1 [Compound 1308],0%,50%,90%,90%,90%,90%,0%,20%,70%,0%,0%,0%,0%,30%,50%,0%,20%,0%,0%,20%,pest or weed control at 125 g/ha [5]: 0%; plant injury at 500 g/ha [11]: 40%; pest or weed control at 250 g/ha [12]: 65%; pest or weed control at 250 g/ha [13]: 100%; pest or weed control at 250 g/ha (rice (Oryra sativa)): 40%; pest or weed control at 250 g/ha [14]: 0%

# — US12077503B2, “Substituted cyclic amides and their use as herbicides” (FMC CORPORATION, priority 2015, dated 2024)
